{
  "source": "patent US8993606B2",
  "about": "“Oral formulations for treating metal overload” (FerroKin BioSciences, Inc., priority 2011, dated 2015)",
  "assay": "Example 4: seven-day dosing in iron-overloaded human subjects (PK, tolerability)",
  "assay_type": "in vivo",
  "conditions": "for CL renal / half-life / Cmax / Tmax / AUC(0-t) / Vd/F: human; for CL renal: plasma and urine; for half-life / Cmax / Tmax / AUC(0-t) / Vd/F: plasma; for AUC(0-t): read-out: AUC(0-24); for Vd/F: read-out: Vz/F",
  "experimental": "A dose-escalation study to assess the safety, tolerability, pharmacokinetics and pharmacodynamics of Compound 1, which correspond to a capsule formulation of (S)-3′-(OH)-DADFT-PE was conducted in 16 adult patients with iron overloaded consequent to transfusions. […] Compound 1 was supplied as capsules containing 50 mg, 100 mg, or 250 mg. The capsules were manufactured in accordance with Annex 13 and the principle of cGMP at Aptuit (10245 Hickman Mills Drive, Kansas City, Mo. 64137).\nPatients 18 years or older with documented transfusional iron overload requiring chronic treatment with deferiprone, deferasirox or deferoxamine were eligible. Causes of iron overload included β-thalassemia major, α-thalassemia or α-thalassemia hydrops)(α°α°, sickle cell disease, and congenital dyserythropoietic anemia. Each of the four cohorts contained four patients. For the purposes of this study, transfusion dependence was defined as requiring eight or more transfusions per year. The iron burden inclusion criteria were defined as: (i) liver iron concentration greater than 2 mg/g (dry weight, liver) as determined by R2 magnetic resonance imaging; (ii) a cardiac magnetic resonance imaging T2* greater than 12 ms; and (iii) serum ferritin in excess of 600 ng/mL. Eligible patients who consented to participation in the study discontinued their regular chelation therapy for up to 5 days during a wash-out period prior to their first dose of Compound 1. Patients received Compound 1 in capsules taken orally in a fasted state.\nIn this study, a standard pharmacokinetic protocol of plasma sampling was performed throughout the 7 days of dosing and continuing for 3 days after the last dose on day 7. Actual blood sampling and urine collection times were used in all pharmacokinetic analyses. […] A formally validated bioanalytical method for quantifying total Compound 1 in human plasma and urine was developed. The drug was extracted from plasma using solid phase extraction and analyzed using high performance liquid chromatography with tandem mass spectrometric determination, and d3-[Compound 1] as an internal standard. The method was used to measure drug (MW 400) over the range of 5 to 2000 ng/mL (12.5-5000 nM) and at sample dilutions of 20- to 50-fold.\nPharmacokinetic parameters for Compound 1 were estimated using non-compartmental analysis. Only plasma and urine concentrations greater than the lower limits of quantitation (LOQ, 5 ng/mL in plasma, 5 ng/mL in urine) for the assays were used in the pharmacokinetic analysis.\nPlasma concentrations, blood sampling times, urine concentrations, urine volumes, and the amount excreted in each interval, and pharmacokinetic parameters were listed by dose group and patient. Plasma concentrations and pharmacokinetic parameters were summarized by dose group using descriptive statistics: linearity with respect to Cmax and AUC(0-24) was assessed using the power model, i.e. P=a×Doseb, where P represents the parameter and a and b are constants. A log-log plot of P versus Dose is linear and a value of b of ≈1 indicates linearity. The equation was fitted to the individual patients' data using non-linear least squares regression. Parameters were compared among doses using descriptive statistics. Due to the small numbers of patients per panel, no formal statistical analyses were done.",
  "note": "Like-named read-outs stand apart in the source and are kept apart here.",
  "data": [
    {"smiles": "COCCOCCOCCOc1cccc(C2=N[C@@](C)(C(=O)O)CS2)c1O", "note": "[Compound 1, (S)-4,5-Dihydro-2-[2-hydroxy-3-(3,6,9-trioxadecyloxy)phenyl]-4-methyl-4-thiazolecarboxylate magnesium hydroxide]", "values": [
      {"measurement": "CL/F", "setting": "3 mg/kg daily 7 days oral", "result": "162 ± 85", "unit": "mL/min"},
      {"measurement": "CL/F", "setting": "8 mg/kg daily 7 days oral", "result": "225 ± 142", "unit": "mL/min"},
      {"measurement": "CL/F", "setting": "16 mg/kg daily 7 days oral", "result": "206 ± 78.4", "unit": "mL/min"},
      {"measurement": "CL/F", "setting": "32 mg/kg daily 7 days oral", "result": "172 ± 60.1", "unit": "mL/min"},
      {"measurement": "serious adverse events associated with the drug", "setting": "3-32 mg/kg daily 7 days", "result": "no serious adverse events"},
      {"measurement": "dose proportionality of plasma concentrations", "setting": "all four doses 3-32 mg/kg", "result": "dose-proportional, linear pharmacokinetics"},
      {"measurement": "tolerability", "setting": "daily for 7 days at doses up to 32 mg/kg", "result": "well tolerated at all dose levels"},
      {"measurement": "CL renal", "setting": "3 mg/kg daily 7 days oral", "result": "75.2 ± 46.8", "unit": "mL/min"},
      {"measurement": "CL renal", "setting": "8 mg/kg daily 7 days oral", "result": "105 ± 62.9", "unit": "mL/min"},
      {"measurement": "CL renal", "setting": "16 mg/kg daily 7 days oral", "result": "83.2 ± 36.5", "unit": "mL/min"},
      {"measurement": "CL renal", "setting": "32 mg/kg daily 7 days oral", "result": "73.6 ± 37.8", "unit": "mL/min"},
      {"measurement": "half-life", "setting": "oral, 40 mg/kg, 5th cohort of four patients, read-out: Mean half life (t½) (converted)", "result": 26.6, "unit": "h"},
      {"measurement": "half-life", "setting": "oral, across doses 3-32 mg/kg, read-out: t½ (converted)", "result": 19.2, "unit": "h"},
      {"measurement": "Cmax", "setting": "3 mg/kg daily 7 days oral", "result": "5910 ± 2300", "unit": "ng/mL"},
      {"measurement": "Tmax", "setting": "3 mg/kg daily 7 days oral", "result": 1.31, "unit": "h"},
      {"measurement": "AUC(0-t)", "setting": "3 mg/kg daily 7 days oral", "result": "19500 ± 11300", "unit": "ng·h/mL"},
      {"measurement": "Vd/F", "setting": "3 mg/kg daily 7 days oral", "result": "185 ± 84.1", "unit": "L"},
      {"measurement": "half-life", "setting": "3 mg/kg daily 7 days oral, read-out: t½ (converted)", "result": "16.2 ± 8.32", "unit": "h"},
      {"measurement": "Cmax", "setting": "8 mg/kg daily 7 days oral", "result": "15000 ± 4440", "unit": "ng/mL"},
      {"measurement": "Tmax", "setting": "8 mg/kg daily 7 days oral", "result": 1.18, "unit": "h"},
      {"measurement": "AUC(0-t)", "setting": "8 mg/kg daily 7 days oral", "result": "44900 ± 30800", "unit": "ng·h/mL"},
      {"measurement": "Vd/F", "setting": "8 mg/kg daily 7 days oral", "result": "311 ± 137", "unit": "L"},
      {"measurement": "half-life", "setting": "8 mg/kg daily 7 days oral, read-out: t½ (converted)", "result": "20.9 ± 11.3", "unit": "h"},
      {"measurement": "Cmax", "setting": "16 mg/kg daily 7 days oral", "result": 38200, "unit": "ng/mL"},
      {"measurement": "Tmax", "setting": "16 mg/kg daily 7 days oral", "result": 1, "unit": "h"},
      {"measurement": "AUC(0-t)", "setting": "16 mg/kg daily 7 days oral", "result": "92300 ± 36600", "unit": "ng·h/mL"},
      {"measurement": "Vd/F", "setting": "16 mg/kg daily 7 days oral", "result": "339 ± 166", "unit": "L"},
      {"measurement": "half-life", "setting": "16 mg/kg daily 7 days oral, read-out: t½ (converted)", "result": "21.3 ± 11.8", "unit": "h"},
      {"measurement": "Cmax", "setting": "32 mg/kg daily 7 days oral", "result": "60200 ± 27500", "unit": "ng/mL"},
      {"measurement": "Tmax", "setting": "32 mg/kg daily 7 days oral", "result": 1.49, "unit": "h"},
      {"measurement": "AUC(0-t)", "setting": "32 mg/kg daily 7 days oral", "result": "158000 ± 43500", "unit": "ng·h/mL"},
      {"measurement": "Vd/F", "setting": "32 mg/kg daily 7 days oral", "result": "214 ± 2.94", "unit": "L"},
      {"measurement": "half-life", "setting": "32 mg/kg daily 7 days oral, read-out: t½ (converted)", "result": "18.7 ± 4.48", "unit": "h"}
    ]}
  ]
}
